Assay results as given in patent publication US11912693B2, “Compounds for modulating S1P1 activity and methods of using the same” (TREVENA, INC., priority 2017, dated 2024).

Experiments:
[1] = molecular target: T1, human sphingosine-1-phosphate receptor 1 (S1P1) (Homo sapiens (Human), UniProt P21453); assay: Inhibition of cAMP production (HTRF cAMP HiRange), S1P1 CHO-K1 cells; type: cell-based; details: for hS1P1 cAMP pEC50: inhibition of cAMP production, S1P1 CHO-K1 cells; for Emax: CHO-K1, efficacy (SPAN) normalized to fingolimod, read-out: hS1P1 cAMP SPAN
Experimental: (§1) Stable clonal Chinese hamster ovary K1 (CHO-K1) cells co-expressing EA-β-arrestin2 and the human sphingosine-1-phosphate receptor 1 (NM_001400, S1P1) with a C-terminal Prolink™ tag were purchased from DiscoverX corporation (Cat #: 93-0207C2).
(§2) Cell lines were cultured in AssayComplete™ Media 6 (DiscoverX Corporation, Cat #: 920018GF2) at 37° C. and 5% CO2 in a humidified CO2 and temperature-controlled incubator. To begin assay plating, cells were washed with dulbecco's phosphate buffered saline (CellGro, Cat #: 21-031-CV) and lifted from the culturing flask by incubation (37° C., 5 min) with CellStripper (Cellgro, Cat #: 25-056-CI). […] Plated cells were incubated overnight at 37° C. and 5% CO2 in a humidified CO2 and temperature-controlled incubator. Detecting Inhibition of cAMP Production
Agonist-promoted G-protein responses were determined by measuring changes in intracellular cAMP using the HTRF® cAMP HiRange kit (CisBio, Cat #: 62AM6PEJ) based on time-resolved fluorescence resonance energy transfer (TR-FRET) technology. […] Following a 30-minute incubation at 37° C. and 5% CO2 in a humidified CO2 and temperature-controlled incubator, the components of the cAMP HiRange kit were added as per the manufacturer's instructions. After an hour incubation at room temperature, plates were analyzed by a BMG PheraStar microplate reader.
(§3) The tables below include the efficacy of the compound as compared to a positive control, referred to as “SPAN”. These values are normalized to fingolimod, a known agonist of the sphingosine-1-phosphate 1 receptor. The tables also include potency values (pEC50) for modulating discrete receptor-mediated activities (inhibition of cAMP production and […] recruitment).
Target sequence in this assay (P21453 whole entry, looked up): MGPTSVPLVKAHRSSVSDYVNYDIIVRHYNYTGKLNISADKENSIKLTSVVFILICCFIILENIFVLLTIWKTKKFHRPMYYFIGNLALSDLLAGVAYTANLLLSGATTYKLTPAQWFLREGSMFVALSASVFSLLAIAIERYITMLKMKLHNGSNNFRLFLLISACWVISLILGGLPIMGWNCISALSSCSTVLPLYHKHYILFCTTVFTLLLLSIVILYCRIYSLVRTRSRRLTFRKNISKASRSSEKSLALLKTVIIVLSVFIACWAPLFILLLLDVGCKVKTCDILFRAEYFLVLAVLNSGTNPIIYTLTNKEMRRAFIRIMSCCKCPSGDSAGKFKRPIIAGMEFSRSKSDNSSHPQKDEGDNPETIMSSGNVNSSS

[2] = molecular target: T1, human sphingosine-1-phosphate receptor 1 (S1P1); assay: β-Arrestin2 recruitment assay (PathHunter), S1P1 CHO-K1 cells; type: cell-based; details: for hS1P1 B-arrestin2 pEC50: β-arrestin2 recruitment, S1P1 CHO-K1 cells; for Emax: CHO-K1, efficacy (SPAN) normalized to fingolimod, read-out: hS1P1 B-arrestin2 SPAN
Experimental: as §1, §2
Target sequence in this assay (P21453 whole entry, looked up): as above
Target sequence in this assay (P32121 whole entry partner, looked up): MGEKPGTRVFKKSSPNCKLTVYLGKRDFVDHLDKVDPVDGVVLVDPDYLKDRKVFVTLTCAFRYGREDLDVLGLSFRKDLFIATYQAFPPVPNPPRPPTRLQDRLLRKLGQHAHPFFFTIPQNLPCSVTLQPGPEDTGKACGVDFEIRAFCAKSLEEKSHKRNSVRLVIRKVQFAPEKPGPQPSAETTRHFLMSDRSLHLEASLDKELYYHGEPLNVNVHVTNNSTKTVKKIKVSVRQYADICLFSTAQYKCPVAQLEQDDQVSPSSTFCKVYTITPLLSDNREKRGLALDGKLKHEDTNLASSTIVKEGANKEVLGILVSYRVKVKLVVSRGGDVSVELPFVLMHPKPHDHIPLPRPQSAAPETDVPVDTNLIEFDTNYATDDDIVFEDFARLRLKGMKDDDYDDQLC
Agonist-promoted β-arrestin2 recruitment to the sphingosine-1-phosphate 1 receptor was determined using the β-arrestin PathHunter®) Detection kit (DiscoverX Corporation, Cat #: 93-0001). […] In cells that stably express these fusion proteins, stimulation with a cognate agonist results in the interaction of […] and the Prolink™-tagged GPCR. This allows the complementation of the two β-galactosidase fragments and results in the formation of a functional enzyme with β-galactosidase activity. […] Following a 60 minute incubation at 37° C. and 5% CO2 in a humidified CO2 and temperature-controlled incubator, the components of the β-arrestin PathHunter® Detection kit were added as per the manufacturer's instructions. After an hour incubation at room temperature, plates were analyzed by a BMG PheraStar microplate reader.
as §3

Row | SMILES | hS1P1 cAMP pEC50 [1] | hS1P1 B-arrestin2 pEC50 [2] | Emax [1] | Emax [2]
1 | CC(C)Oc1ccccc1-c1noc(-c2ccc3c(c2)nnn3C(C)C)n1 [Compound 62, 3-(2-isopropoxyphenyl)-5-(1-isopropyl-1H-benzo[d][1,2,3]triazol-5-yl)-1,2,4-oxadiazole] | <6.5 | <5 | – | –
2 | CC(C)n1nnc2cc(-c3noc(-c4cccc(F)c4)n3)ccc21 [Compound 64, 5-(3-fluorophenyl)-3-(1-isopropylbenzotriazol-5-yl)-1,2,4-oxadiazole] | >6.5 | <5 | – | –
3 | CCC1(CC)CC(=O)c2cc(-c3nc(-c4ccc(OC)cc4)no3)ccc2O1 [Compound 65, 2,2-diethyl-6-(3-(4-methoxyphenyl)-1,2,4-oxadiazol-5-yl)chroman-4-one] | <6.5 | <5 | < 75% | < 75%
4 | CCC1(CC)CC(=O)c2cc(-c3nc(-c4ccccc4C)no3)ccc2O1 [Compound 66, 2,2-diethyl-6-(3-(o-tolyl)-1,2,4-oxadiazol-5-yl)chroman-4-one] | >6.5 | >5 | > 75% | > 75%
5 | CCC1(CC)CC(=O)c2cc(-c3nnc(-c4ccc5c(c4)nnn5C(C)C)s3)ccc2O1 [Compound 67, 2,2-diethyl-6-(5-(1-isopropyl-1H-benzo[d][1,2,3]triazol-5-yl)-1,3,4-thiadiazol-2-yl)chroman-4-one] | <6.5 | >5 | > 75% | < 75%
6 | COc1ccc(-c2nc(-c3ccc4c(c3)nnn4C(C)C)no2)cc1 [Compound 69, 3-(1-isopropylbenzotriazol-5-yl)-5-(4-methoxyphenyl)-1,2,4-oxadiazole] | <6.5 | >5 | < 75% | < 75%
7 | CCC1(CC)CC(=O)c2cc(-c3nc(-c4ccc(O)cc4)no3)ccc2O1 [Compound 72, 2,2-diethyl-6-[3-(4-hydroxyphenyl)-1,2,4-oxadiazol-5-yl]chroman-4-one] | >6.5 | >5 | > 75% | > 75%
8 | Cn1nnc2cc(-c3noc(-c4ccccc4Br)n3)ccc21 [Compound 73, 5-(2-bromophenyl)-3-(1-methyl-1H-benzo[d][1,2,3]triazol-5-yl)-1,2,4-oxadiazole] | <6.5 | >5 | < 75% | < 75%
9 | Cc1ccc(-c2nc(-c3ccc4c(c3)nnn4C(C)C)no2)s1 [Compound 74, 5-[5-(5-methylthiophen-2-yl)-1,2,4-oxadiazol-3-yl]-1-(propan-2-yl)-1H-1,2,3-benzotriazole] | <6.5 | <5 | < 75% | < 75%

The next lines start with the values.

Row | hS1P1 cAMP pEC50 [1] | hS1P1 B-arrestin2 pEC50 [2] | Emax [1] | Emax [2] | SMILES
10 | >6.5 | <5 | – | – | CC(C)n1nnc2cc(-c3ncc(-c4ccccc4F)s3)ccc21 [Compound 63, 5-(2-fluorophenyl)-2-(1-isopropyl-1H-benzo[d][1,2,3]triazol-5-yl)thiazole]
11 | <6.5 | <5 | < 75% | < 75% | CCC1(CC)CC(=O)c2cc(-c3nc(-c4ccc(Cl)cc4)no3)ccc2O1 [Compound 68, 6-[3-(4-chlorophenyl)-1,2,4-oxadiazol-5-yl]-2,2-diethyl-chroman-4-one]
12 | >6.5 | >5 | < 75% | < 75% | CC(C)n1nnc2cc(-c3nnc(-c4ccccc4O)s3)ccc21 [Compound 70, 2-{5-[1-(propan-2-yl)-1H-1,2,3-benzotriazol-5-yl]-1,3,4-thiadiazol-2-yl}phenol]
13 | <6.5 | <5 | > 75% | < 75% | CCC1(CC)CC(=O)c2cc(-c3nc(-c4cccc(OC)c4)no3)ccc2O1 [Compound 71, 2,2-diethyl-6-(3-(3-methoxyphenyl)-1,2,4-oxadiazol-5-yl)chroman-4-one]
